Holding throughout (assay type): biochemical
The target of one assay is MDM2 (Homo sapiens, UniProt Q00987). Put plainly: MDM2 AlphaScreen, Target #1. The protocol: (§1) Metal salt solutions for the metal ion interference set (MIIS) were prepared as 10 mM stock solutions in DMSO (see Table 3). All metal salts used have been purchased at highest industrial grade.
Background: In Alpha technology, singlet oxygen from a donor bead excites a nearby acceptor bead.

The subject of assay [1] is off-target. Description: UPA-UPAR AlphaScreen, Target #2. The procedure:
as §1

Another assay deals with KRAS GTP (Homo sapiens, UniProt P01116, G12D). Put plainly: KRAS AlphaScreen, Target #2. The protocol:
as §1

The subject of assay [2] is off-target. Description: MDM2 AlphaScreen, Target #2. The protocol: as §1
The subject of the next assay is KRAS GDP. Put plainly: KRAS AlphaScreen, Target #1. The procedure:
as §1

The target in another assay is WRN (ext.) (Homo sapiens, UniProt Q14191). Put plainly: WRN ADP-Glo, Target #2. The protocol: as §1
Sequence of WRN (ext.) (Q14191 whole entry, species assumed): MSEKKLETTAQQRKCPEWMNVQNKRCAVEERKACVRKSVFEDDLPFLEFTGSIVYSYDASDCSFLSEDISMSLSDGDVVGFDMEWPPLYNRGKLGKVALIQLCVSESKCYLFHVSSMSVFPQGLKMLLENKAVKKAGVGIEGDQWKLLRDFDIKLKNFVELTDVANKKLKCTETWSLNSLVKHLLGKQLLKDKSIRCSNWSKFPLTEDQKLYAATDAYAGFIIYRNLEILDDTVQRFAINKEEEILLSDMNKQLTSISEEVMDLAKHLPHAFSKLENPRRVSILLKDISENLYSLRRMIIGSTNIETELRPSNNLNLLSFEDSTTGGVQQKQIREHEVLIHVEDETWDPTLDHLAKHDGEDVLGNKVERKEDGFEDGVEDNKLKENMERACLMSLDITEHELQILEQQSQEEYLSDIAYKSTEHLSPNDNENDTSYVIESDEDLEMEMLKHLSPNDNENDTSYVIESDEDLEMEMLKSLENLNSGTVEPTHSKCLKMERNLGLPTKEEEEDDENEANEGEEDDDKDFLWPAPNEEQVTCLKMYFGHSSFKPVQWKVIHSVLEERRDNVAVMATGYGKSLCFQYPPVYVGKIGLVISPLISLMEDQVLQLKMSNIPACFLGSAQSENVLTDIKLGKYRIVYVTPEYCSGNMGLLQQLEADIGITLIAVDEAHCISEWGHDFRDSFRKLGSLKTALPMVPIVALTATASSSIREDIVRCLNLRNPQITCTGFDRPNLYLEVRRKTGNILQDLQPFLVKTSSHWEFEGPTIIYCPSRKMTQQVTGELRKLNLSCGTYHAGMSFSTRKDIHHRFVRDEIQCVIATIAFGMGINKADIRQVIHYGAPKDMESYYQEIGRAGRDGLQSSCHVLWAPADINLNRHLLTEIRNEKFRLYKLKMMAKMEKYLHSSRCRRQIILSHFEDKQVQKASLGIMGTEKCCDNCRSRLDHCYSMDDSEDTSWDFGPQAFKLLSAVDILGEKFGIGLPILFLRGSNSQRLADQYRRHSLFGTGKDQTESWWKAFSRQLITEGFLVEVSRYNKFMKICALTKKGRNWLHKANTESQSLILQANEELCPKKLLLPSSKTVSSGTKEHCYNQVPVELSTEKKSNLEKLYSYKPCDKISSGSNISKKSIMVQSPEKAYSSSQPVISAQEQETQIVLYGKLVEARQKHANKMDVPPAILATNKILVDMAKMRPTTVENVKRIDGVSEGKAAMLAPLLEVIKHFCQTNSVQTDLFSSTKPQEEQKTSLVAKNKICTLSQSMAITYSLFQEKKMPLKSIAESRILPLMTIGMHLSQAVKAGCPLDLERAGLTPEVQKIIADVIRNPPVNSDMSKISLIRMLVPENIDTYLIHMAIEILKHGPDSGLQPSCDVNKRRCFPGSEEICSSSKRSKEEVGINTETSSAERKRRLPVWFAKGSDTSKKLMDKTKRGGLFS
In assay [3] the test system is off target. Description: FKBP51 AlphaScreen, Target #3. The procedure: as §1
The test system of assay [4] is off target. Description: KRAS AlphaScreen, Target #3. The protocol:
as §1

Another assay concerns the target T1, beta-Catenin (Homo sapiens, UniProt P35222).
T1 sequence (P35222 1-781): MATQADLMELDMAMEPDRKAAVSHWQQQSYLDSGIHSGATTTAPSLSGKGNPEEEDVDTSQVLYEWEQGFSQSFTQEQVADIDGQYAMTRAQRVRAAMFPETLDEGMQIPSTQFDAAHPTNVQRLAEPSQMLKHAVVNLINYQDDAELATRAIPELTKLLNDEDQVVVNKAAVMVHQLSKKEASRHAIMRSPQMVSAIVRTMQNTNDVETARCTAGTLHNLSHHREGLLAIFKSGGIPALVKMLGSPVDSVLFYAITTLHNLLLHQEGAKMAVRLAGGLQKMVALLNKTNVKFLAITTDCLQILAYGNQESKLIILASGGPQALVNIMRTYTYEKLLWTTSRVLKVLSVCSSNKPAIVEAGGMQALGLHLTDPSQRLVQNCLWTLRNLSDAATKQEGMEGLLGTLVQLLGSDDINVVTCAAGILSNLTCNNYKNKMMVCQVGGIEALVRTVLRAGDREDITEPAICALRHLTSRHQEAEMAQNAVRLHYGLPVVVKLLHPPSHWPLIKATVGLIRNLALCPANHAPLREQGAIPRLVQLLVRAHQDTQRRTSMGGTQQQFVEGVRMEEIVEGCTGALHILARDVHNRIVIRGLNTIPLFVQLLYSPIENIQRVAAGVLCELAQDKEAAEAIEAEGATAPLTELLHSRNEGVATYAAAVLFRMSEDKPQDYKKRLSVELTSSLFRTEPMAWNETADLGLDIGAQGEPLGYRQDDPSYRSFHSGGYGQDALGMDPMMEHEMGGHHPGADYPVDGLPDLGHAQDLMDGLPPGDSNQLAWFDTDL
Put plainly: beta-Catenin TR-FRET. To be noted: read-out: Target #1 IC50. The protocol: as §1
(In TR-FRET formats the signal depends on donor and acceptor labels being close together.)

For another assay, the target named is T2, FKBP51 (Homo sapiens, UniProt Q13451).
T2 sequence (Q13451 1-457): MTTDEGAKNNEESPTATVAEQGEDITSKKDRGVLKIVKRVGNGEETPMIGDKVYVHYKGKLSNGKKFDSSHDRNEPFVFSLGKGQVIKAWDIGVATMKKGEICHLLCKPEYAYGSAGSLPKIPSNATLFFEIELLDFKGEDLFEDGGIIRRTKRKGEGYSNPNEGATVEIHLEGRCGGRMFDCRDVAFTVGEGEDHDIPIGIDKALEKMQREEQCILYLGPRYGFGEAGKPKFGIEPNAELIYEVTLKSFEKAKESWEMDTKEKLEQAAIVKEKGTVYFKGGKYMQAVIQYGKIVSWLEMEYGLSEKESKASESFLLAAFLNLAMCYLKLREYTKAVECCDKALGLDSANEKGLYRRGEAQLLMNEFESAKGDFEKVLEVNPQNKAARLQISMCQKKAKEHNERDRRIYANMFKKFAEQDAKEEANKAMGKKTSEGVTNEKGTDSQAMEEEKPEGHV
Description: FKBP51 AlphaScreen, Target #1. The procedure:
as §1

Bounds are passed on as bounds.

Usually IC50 stands for the concentration that inhibits the measured activity by half.

Sequence of KRAS GTP (P01116 1-169 isoform P01116-2 G12D): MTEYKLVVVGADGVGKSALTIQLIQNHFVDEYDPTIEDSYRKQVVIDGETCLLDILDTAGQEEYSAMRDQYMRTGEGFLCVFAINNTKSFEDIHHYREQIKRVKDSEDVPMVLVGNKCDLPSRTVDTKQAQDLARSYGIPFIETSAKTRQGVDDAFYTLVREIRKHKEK
Sequence of MDM2 (Q00987 whole entry, species assumed): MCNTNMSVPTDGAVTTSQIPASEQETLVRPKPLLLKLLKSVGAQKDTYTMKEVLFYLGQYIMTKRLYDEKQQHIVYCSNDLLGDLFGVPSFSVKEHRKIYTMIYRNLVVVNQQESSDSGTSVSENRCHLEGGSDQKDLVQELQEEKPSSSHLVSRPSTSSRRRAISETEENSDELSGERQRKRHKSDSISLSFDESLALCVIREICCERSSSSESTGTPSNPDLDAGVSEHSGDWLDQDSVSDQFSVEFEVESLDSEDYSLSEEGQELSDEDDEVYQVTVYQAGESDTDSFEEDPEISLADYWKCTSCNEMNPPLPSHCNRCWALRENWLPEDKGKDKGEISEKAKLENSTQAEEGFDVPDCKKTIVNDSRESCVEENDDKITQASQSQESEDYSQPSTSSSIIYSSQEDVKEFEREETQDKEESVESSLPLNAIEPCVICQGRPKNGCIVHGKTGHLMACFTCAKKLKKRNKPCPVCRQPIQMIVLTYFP

As to `[Cl-].[Cl-].[Mg+2]` [MgCl2, Magnesium chloride], the IC50 against MDM2 was above 10 µM; with off-target [1], above 10 µM; against KRAS GTP it was 1 to 10 µM; in the assay on off-target [2], above 10 µM; in the assay on KRAS GDP, above 10 µM; on WRN (ext.), above 10 µM. For the same compound, the IC50 with off target [3], in the assay on off target [4], on beta-Catenin and against FKBP51 was above 10 µM in each case.
Turning to `[Cl-].[Cl-].[Co+2]` [CoCl2, Cobalt(II) chloride], the IC50 at MDM2, with off-target [1], against KRAS GTP, in the assay on off-target [2], with KRAS GDP and against WRN (ext.) was above 10 µM each time. In addition, the IC50 in the assay on off target [3], in the assay with off target [4], at beta-Catenin and against FKBP51 was above 10 µM each time.
In the case of `[Cl][Pd][Cl]` [PdCl2, Palladium(II) chloride], the IC50 against MDM2 is above 10 µM; in the assay on off-target [1] it was below 1 µM; at KRAS GTP it was below 1 µM; with off-target [2], above 10 µM; in the assay with KRAS GDP, below 1 µM; against WRN (ext.) it was 1 to 10 µM. Besides, the IC50 with off target [3], in the assay with off target [4], on beta-Catenin and at FKBP51 was above 10 µM throughout.
Take `[Cl][Sn][Cl]` [SnCl2, Tin(II) chloride]: the IC50 was above 10 µM on MDM2; above 10 µM in the assay with off-target [1]; 1 to 10 µM on KRAS GTP; above 10 µM in the assay with off-target [2]; above 10 µM with KRAS GDP; above 10 µM against WRN (ext.). The IC50 in the assay on off target [3] was above 10 µM; in the assay with off target [4] it was above 10 µM; on beta-Catenin, above 10 µM; against FKBP51 it was 1 to 10 µM.
Consider `[Cl][Fe]([Cl])[Cl]` [FeCl3, Iron(III) chloride], for which the IC50 at MDM2 is above 10 µM; in the assay on off-target [1] it was above 10 µM; against KRAS GTP, 1 to 10 µM; with off-target [2], above 10 µM; in the assay with KRAS GDP it was 1 to 10 µM; against WRN (ext.), above 10 µM. The IC50 in the assay with off target [3], with off target [4], at beta-Catenin and against FKBP51 was above 10 µM throughout.
As to `[Cl][Cu][Cl]` [CuCl2, Copper(II) chloride], the IC50 at MDM2 was above 10 µM; in the assay with off-target [1], above 10 µM; on KRAS GTP, above 10 µM; with off-target [2], above 10 µM; in the assay on KRAS GDP, above 10 µM; at WRN (ext.) it was 1 to 10 µM. For the same compound, the IC50 in the assay on off target [3], with off target [4], on beta-Catenin and against FKBP51 was above 10 µM throughout.
Regarding `CC(=O)[O-].[Ag+]` [Ag (CH 3COO), Silver acetate], the IC50 against MDM2, at KRAS GTP, with off-target [2], in the assay on KRAS GDP, at WRN (ext.) and in the assay with off target [3] was above 10 µM in each case. The figures for the IC50 with off target [4], on beta-Catenin and against FKBP51 were above 10 µM, below 1 µM and above 10 µM, respectively.
For the compound `[Cl][Fe][Cl]` [FeCl2, Iron(II) chloride], the IC50 is above 10 µM at MDM2; above 10 µM with off-target [1]; 1 to 10 µM against KRAS GTP; 1 to 10 µM in the assay with KRAS GDP; above 10 µM against WRN (ext.); above 10 µM in the assay on off target [3]. In addition, the IC50 in the assay on off target [4], at beta-Catenin and at FKBP51 was above 10 µM in each case.
As to `O=[N+]([O-])[O-].O=[N+]([O-])[O-].O=[N+]([O-])[O-].[Al+3]` [Al(NO3)3, Aluminum nitrate], the IC50 on MDM2, in the assay on off-target [1], at KRAS GTP, in the assay with off-target [2], in the assay with KRAS GDP and against WRN (ext.) was above 10 µM each time. Also, the IC50 with off target [3] is above 10 µM; with off target [4], above 10 µM; on beta-Catenin, above 10 µM; on FKBP51, below 1 µM.
Regarding `[Cl][Mn][Cl]` [MnCl2, Manganese(II) chloride], the IC50 against MDM2, in the assay with off-target [1], on KRAS GTP, in the assay on off-target [2], in the assay with KRAS GDP and against WRN (ext.) was above 10 µM throughout. Further, the concentration for half-maximal inhibition (IC50) in the assay with off target [3], in the assay on off target [4], at beta-Catenin and against FKBP51 was above 10 µM each time.
On to `[Cl-].[Cl-].[Zn+2]` [ZnCl2, Zinc(II) chloride], for which the IC50 on MDM2, in the assay with off-target [1], against KRAS GTP, with off-target [2], in the assay on KRAS GDP and at WRN (ext.) was above 10 µM in each case. Moreover, the IC50 with off target [3], in the assay on off target [4], at beta-Catenin and against FKBP51 was above 10 µM throughout.
In the case of `[Cl][Ni][Cl]` [NiCl2, Nickel(II) chloride], the IC50 against MDM2, in the assay on off-target [1], on KRAS GTP, in the assay on off-target [2], with KRAS GDP and on WRN (ext.) was above 10 µM in each case. Further, the IC50 with off target [3], with off target [4], at beta-Catenin and against FKBP51 was above 10 µM in each case.
For `[Cl][Au]([Cl])[Cl]` [AuCl3, Gold(III) chloride], the IC50 was above 10 µM against MDM2; 1 to 10 µM in the assay with off-target [1]; 1 to 10 µM on KRAS GTP; above 10 µM with off-target [2]; 1 to 10 µM in the assay with KRAS GDP; 1 to 10 µM against WRN (ext.). Besides, the IC50 in the assay on off target [3] was above 10 µM; in the assay on off target [4], above 10 µM; on beta-Catenin, below 1 µM; at FKBP51, above 10 µM.

The values above are taken from paper PMC11285368, “Chasing Red Herrings: Palladium Metal Salt Impurities Feigning KRAS Activity in Biochemical Assays” (Journal of Medicinal Chemistry, 2024).
